We go through 18 compounds from patent US6462063B1, “C-proteinase inhibitors” (Fibrogen, Inc., priority 2000, dated 2002).

The test has as its target T1, recombinant human C-proteinase (Homo sapiens, UniProt P13497).
T1 sequence (P13497 121-986): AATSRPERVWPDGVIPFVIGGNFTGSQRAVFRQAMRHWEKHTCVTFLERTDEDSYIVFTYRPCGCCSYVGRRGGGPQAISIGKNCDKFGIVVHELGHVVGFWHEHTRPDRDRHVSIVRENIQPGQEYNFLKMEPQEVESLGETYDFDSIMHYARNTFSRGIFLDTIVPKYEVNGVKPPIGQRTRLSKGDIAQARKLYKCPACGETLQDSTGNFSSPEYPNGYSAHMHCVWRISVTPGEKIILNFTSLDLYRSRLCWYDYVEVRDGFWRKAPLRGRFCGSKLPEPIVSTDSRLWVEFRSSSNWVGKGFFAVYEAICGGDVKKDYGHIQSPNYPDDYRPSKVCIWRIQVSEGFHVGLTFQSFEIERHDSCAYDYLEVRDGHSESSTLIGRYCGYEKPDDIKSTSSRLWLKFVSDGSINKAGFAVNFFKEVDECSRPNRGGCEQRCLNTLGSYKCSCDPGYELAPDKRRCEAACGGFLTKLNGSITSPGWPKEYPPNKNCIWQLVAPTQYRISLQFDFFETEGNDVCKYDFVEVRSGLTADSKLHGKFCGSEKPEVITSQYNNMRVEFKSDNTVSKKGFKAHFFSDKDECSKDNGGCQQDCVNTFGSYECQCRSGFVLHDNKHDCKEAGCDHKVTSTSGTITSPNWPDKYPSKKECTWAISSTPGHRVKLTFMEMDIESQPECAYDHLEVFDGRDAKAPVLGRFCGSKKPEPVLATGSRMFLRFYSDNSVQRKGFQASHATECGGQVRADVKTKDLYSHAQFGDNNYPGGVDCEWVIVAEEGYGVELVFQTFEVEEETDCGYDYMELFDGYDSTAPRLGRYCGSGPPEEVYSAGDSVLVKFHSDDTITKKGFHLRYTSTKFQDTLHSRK
In words: C-Proteinase IC50 assay, fluorogenic peptide. To be noted: 50 μM fluorogenic peptide, pH 7.6, 4 hours at 37° C., fluorescence, read-out: C-Proteinase Inhibitor IC50. The format is biochemical. Here is the method:
The following assay may be used to determine the level of activity and effect of the different compounds of the present invention on C-proteinase activity. […] The reaction proceeded for 4 hours at 37° C. and the fluorescence was measured using a Bio-Tek Fl-600.

In the case of `O=C(CCCC1C(=O)N(C2CCCCC2)C(=O)N1Cc1ccccc1)NO` (stereo not drawn) [Compound 107], the IC50 amounted to 3330 nM.
For the compound `O=C(CCCC1C(=O)N(C23CC4CC(CC(C4)C2)C3)C(=O)N1CC1CCCCC1)NO` (stereo not drawn) [Compound 127], the IC50 is 290 nM.
The value for `COc1ccccc1CN1C(=O)N(C23CC4CC(CC(C4)C2)C3)C(=O)C1CCCC(=O)NO` (stereo not drawn) [Compound 163] was 600 nM.
On to `O=C(CCCC1C(=O)N(C23CC4CC(CC(C4)C2)C3)C(=O)N1Cc1cccc(O)c1)NO` (stereo not drawn) [Compound 161], for which the IC50 was 140 nM.
The value for `COc1cccc(CN2C(=O)N(C34CC5CC(CC(C5)C3)C4)C(=O)C2CCCC(=O)NO)c1O` (stereo not drawn) [Compound 168] was 430 nM.
Consider `O=C(CCCC1C(=O)N(C23CC4CC(CC(C4)C2)C3)C(=O)N1Cc1ccco1)NO` (stereo not drawn) [Compound 176], for which the IC50 was found to be 230 nM.
With `O=C(CSCC1C(=O)N(C23CC4CC(CC(C4)C2)C3)C(=O)N1Cc1ccccn1)NO` (stereo not drawn) [Compound 199], the IC50 stood at 290 nM.
The value for `O=C(CCCC1C(=O)N(C2CCCCC2)C(=O)N1Cc1cccc(O)c1)NO` (stereo not drawn) [Compound 198] was 1240 nM; that for `O=C(CCCC1C(=O)N(C23CC4CC(CC(C4)C2)C3)C(=O)N1CC1CC1)NO` (stereo not drawn) [Compound 131] was 430 nM.
As for `O=C(CCCC1C(=O)N(C23CC4CC(CC(C4)C2)C3)C(=O)N1CC1=COCCC1)NO` (stereo not drawn) [Compound 192], the IC50 was determined as 210 nM.
To `O=C(CCCC1C(=O)N(C23CC4CC(CC(C4)C2)C3)C(=O)N1Cc1ccccc1)NO` (stereo not drawn) [Compound 102] belongs 770 nM; to `COc1ccc(O)c(CN2C(=O)N(C34CC5CC(CC(C5)C3)C4)C(=O)C2CCCC(=O)NO)c1` (stereo not drawn) [Compound 139], 260 nM.
To `O=C(CCCC1C(=O)N(C2CCCCC2)C(=O)N1Cc1ccccc1O)NO` (stereo not drawn) [Compound 195] belongs 1080 nM.
To `O=C(CCCC1C(=O)N(C23CC4CC(CC(C4)C2)C3)C(=O)N1CC1CC2C=CC1C2)NO` (stereo not drawn) [Compound 128] belongs 400 nM; to `O=C(CCCC1C(=O)N(C23CC4CC(CC(C4)C2)C3)C(=O)N1Cc1ccccn1)NO` (stereo not drawn) [Compound 174], 210 nM.
Regarding `O=C(CCCC1C(=O)N(C23CC4CC(CC(C4)C2)C3)C(=O)N1Cc1ccccc1O)NO` (stereo not drawn) [Compound 155], the IC50 is 270 nM.
To `O=C(CCCC1C(=O)N(C23CC4CC(CC(C4)C2)C3)C(=O)N1Cc1cc(O)ccc1O)NO` (stereo not drawn) [Compound 137] belongs 59 nM; to `O=C(CCCC1C(=O)N(C23CC4CC(CC(C4)C2)C3)C(=O)N1Cc1cccc2c1OCO2)NO` (stereo not drawn) [Compound 179], 230 nM.
